From BindingDB's records for doi:10.1002/cbic.201300347 (Fondazione Istituto Italiano Di Tecnologia, 2013)
pIC50: −log10 of the molar value. Where a name gives a salt, the structure may show the parent alone.

Target: T1, Fatty-acid amide hydrolase 1 [33-574] (Rattus norvegicus, UniProt P97612)
T1 construct: 33-574
T1 sequence (P97612 whole entry): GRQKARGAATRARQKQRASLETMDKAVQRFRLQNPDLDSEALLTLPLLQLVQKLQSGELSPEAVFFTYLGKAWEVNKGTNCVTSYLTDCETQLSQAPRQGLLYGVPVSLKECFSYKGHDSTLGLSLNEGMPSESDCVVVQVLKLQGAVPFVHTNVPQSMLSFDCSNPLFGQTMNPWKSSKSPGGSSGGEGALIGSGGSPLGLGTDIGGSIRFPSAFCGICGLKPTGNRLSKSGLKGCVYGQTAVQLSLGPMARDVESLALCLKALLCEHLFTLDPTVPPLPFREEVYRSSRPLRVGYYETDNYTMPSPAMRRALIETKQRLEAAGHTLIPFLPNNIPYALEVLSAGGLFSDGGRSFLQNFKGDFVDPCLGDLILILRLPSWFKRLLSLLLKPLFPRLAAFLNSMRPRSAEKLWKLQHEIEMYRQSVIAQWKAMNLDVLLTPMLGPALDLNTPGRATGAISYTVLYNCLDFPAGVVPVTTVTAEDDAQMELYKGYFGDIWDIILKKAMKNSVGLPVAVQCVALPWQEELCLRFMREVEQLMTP

SMILES | pIC50
NC(=O)c1cccc(-c2cc(OC(=O)NC3CCCCC3)ccc2C(=O)O)c1 | 5.40
O=C(n1nc2ccccc2n1)C(F)(F)F [1‐(1,2,3‐benzotriazol‐2‐yl)‐2,2,2‐ trifluoroethanone (Hit 14)] | 3.40
OC(c1ccc(Cl)cc1)C(F)(F)F (stereo unspecified) [1‐(4‐chlorophenyl)‐2,2,2‐trifluoroethanol (Hit 11)] | 3.84
O=C(c1ccc(Cl)cc1)C(F)(F)F [1‐(4‐chlorophenyl)‐2,2,2‐trifluoroethanone (Hit 3)] | 4.59
O=C(O)C1(C(F)(F)F)CCC1 [1‐(trifluoromethyl)cyclobutane‐1‐carboxylic acid (Hit 9)] | 3.33
FC(F)(F)c1ccccc1N1CCNCC1 [1‐[2‐(trifluoromethyl)phenyl]piperazine hydrochloride (Hit 1)] | 5.38
O=C(Nc1cnc2[nH]ccc2c1)c1cccc(Cl)c1Cl [2,3‐dichloro‐N‐{1H‐pyrrolo[2,3‐b]pyridin‐5‐ yl}benzamide (Compound 2)] | 7.02
O=C1CCCc2c1cnc1nc(C(F)(F)F)nn21 [2‐(trifluoromethyl)‐7H,8H,9H‐[1,2,4]triazolo[1,5‐ a]quinazolin‐6‐one (Hit 2)] | 5.52
N#CCc1cccc(C(F)(F)F)c1 [2‐[3‐(trifluoromethyl)phenyl]acetonitrile (Hit 13)] | 3.14
CS(=O)(=O)c1ccc(N)c(F)c1 [2‐fluoro‐4‐methanesulfonylaniline (Hit 4)] | 4.24
Cc1ccc(OC(=O)NC2CCCCC2)cc1-c1cccc(C(N)=O)c1 [3‐(3‐carbamoylphenyl)‐4‐methylphenyl N‐ cyclohexylcarbamate (Compound 1)] | 7.22
Nc1cccc(C(=O)Nc2cc(=O)n(CC(F)(F)F)[nH]2)c1 [3‐amino‐N‐[5‐hydroxy‐1‐(2,2,2‐ trifluoroethyl)pyrazol‐3‐yl]benzamide (Hit 18)] | 2.88
O=C(O)c1cc(=O)cc(C(F)(F)F)o1 [4‐oxo‐6‐(trifluoromethyl)pyran‐2‐carboxylic acid (Hit 10)] | 3.86
OC1(C(F)(F)F)CC(c2ccccc2)N=N1 (stereo unspecified) [5‐phenyl‐3‐(trifluoromethyl)‐2,4‐dihydropyrazol‐3‐ ol (Hit 6)] | 4.49
FC(F)(F)c1cc(-c2ccccc2)nc2ncnn12 [5‐phenyl‐7‐(trifluoromethyl)‐[1,2,4]triazolo[1,5‐ a]pyrimidine (Hit 15)] | 3.96
O[C@@H](c1ccccc1)C(F)(F)F [(1S)‐2,2,2‐trifluoro‐1‐phenylethanol (Hit 12)] | 3.25
Nc1nc(F)nc2c1ncn2C1O[C@H](CO)[C@@H](O)[C@H]1O (stereo partly drawn) [(3R,4S,5R)‐2‐(6‐amino‐2‐fluoropurin‐9‐yl)‐5‐ (hydroxymethyl)oxolane‐3,4‐diol (Hit 17)] | 2.95
Oc1cccc(C(F)(F)F)c1 [M‐trifluoromethylphenol (Hit 5)] | 3.35
O=C(O)c1cccnc1Nc1cccc(C(F)(F)F)c1 [NSC_4488] | 3.79
NCc1cccc(C(F)(F)F)c1 [[3‐(trifluoromethyl)phenyl]methanamine (Hit 8)] | 3.57
O=C(O)Cn1ccc(C(F)(F)F)n1 [[3‐(trifluoromethyl)pyrazol‐1‐yl]acetic acid (Hit 7)] | 3.83
